Columns and labels:
[1] = system: ConA hepatitis mouse model; experiment: Serum ALT and AST in ConA hepatitis mouse model; format: in vivo, C57BL/6 mice; details: serum 10 hours after ConA 15 mg/kg i.v.; gavage, extract 15 mg/kg, actein/deoxyactein 5 mg/kg; MEAN ± SEM
Method: The test materials and animals were the same as those in Experimental Example 1.
(§1) Grouping: C57BL/6 mice, male, 18-20 g, after 1 day of adaptive breeding, randomly divided into 5 groups: normal control group, ConA model group, triterpenoid saponin group, actein group and deoxyactein group.
(§2) Model preparation and drug administration: except the normal control group, mice were injected intravenously at a dose of ConA 15 mg/kg. The dosage of each group was the same as that of Experimental Example 1.
(1) The effects of drug administration in each group on serum ALT and AST of ConA mice were measured. Eight mice in each group were sacrificed under anesthesia 10 hours after ConA injection. Peripheral blood was taken, and serum was separated to detect ALT and AST.

[2] = system: mouse bone marrow-derived macrophages (BMDM); experiment: IL-12 and TNF-α secretion by LPS-stimulated macrophages (BMDM); format: cell-based, C57BL/6 mice; details: ELISA
Excerpt: Test materials: LPS was purchased from Sigma; actein and deoxyactein were purchased from American ChromaDex; FBS was purchased from American PAA; DMEM high glucose medium; macrophage colony-stimulating factor (M-CSF) was purchased from PeproTech company; ELISA kit was purchased from BD company of the United States.
(§3) Animal: C57BL/6 mice, purchased from Beijing Huafukang Biotechnology Co., Ltd.
Isolation and culture of mouse bone marrow-derived macrophages (BMDM): after anesthesia of C57BL/6 mice, the mouses 2 pairs of femur and tibia were aseptically separated, and the bone marrow cells were flushed into a sterile flow tube using a 2 mL syringe with sterile PBS. Repeatedly pipetted into a bone marrow single cell suspension. After centrifugation, bone marrow cells were harvested, and 10 mL of complete medium containing 10% FBS, 1% glutamine, 1% double antibiotics (anti-penicillin, anti-streptomycin), and 10 ng/mL M-CSF were added to […] cell culture dish to culture at 37° C. After 4 days, the above fresh medium was changed, and macrophages with large volume, adherent growth, and mature differentiation were observed under the microscope on the 7th day. The cells were scraped off with a cell scraper, and repeatedly blown and mixed to form a single cell suspension, and then seeded in a 96-well plate at 1×10^5 cells/well.
BMDM cells induced activation and drug treatment: BMDM cells were treated with different doses of actein and deoxyactein, and 100 ng/mL LPS was given to stimulate cells 1 h later to simulate the activation of macrophages by bacterial infection. The cell supernatant was collected 4 hours later, and cytokine secretion was detected by ELISA.

[3] = system: ConA hepatitis mouse model; experiment: Liver pathological damage in ConA hepatitis mouse model (HE staining); format: in vivo, C57BL/6 mice; details: liver 10 hours after ConA 15 mg/kg; compared with the ConA group
Method: as §1, §2
(2) The effects of drug administration in each group on liver pathological damage in ConA mice were examined. Three mice in each group were sacrificed under anesthesia 10 hours after ConA injection. The left lobe of the liver was taken, cut into a size of about 5 mm3, and placed in 10% formalin solution, and dehydrated, transparently impregnated with wax, embedded, sliced, and spread, observed after staining;

[4] = system: serum cytokines TNF-α, IL-12, IL-6, MCP-1, IFN-γ; experiment: Serum inflammatory cytokine secretion in ConA mouse model; format: in vivo, C57BL/6 mice; details: MEAN ± SEM; for IL-6 / IL-12 / MCP-1 / TNF-α: serum 3 hours after ConA injection; for IFN-γ: serum 10 hours after ConA injection
Method: as §1, §2
(3) The effect of each group of drugs on serum cytokine secretion of ConA mice was examined. Six mice in each group. Peripheral blood was collected 3 hours after ConA injection and serum was separated to detect the secretion of cytokines TNF-α, IL-12, IL-6 and MCP-1. Serum was separated 10 hours after ConA injection to detect cell factor IFN-γ secretion.

[5] = system: ConA hepatitis mouse model; experiment: Survival rate of ConA hepatitis mouse model; format: in vivo, C57BL/6 mice; details: ConA 25 mg/kg i.v.; 96-hour observation; gavage, extract 15 mg/kg, actein and deoxyactein 5 mg/kg; model group 10%
Method: Test materials: ConA was purchased from Sigma; actein and deoxyactein were purchased from ChromaDex, USA.
as §3
Grouping: 40 C57BL/6 mice, male, 18-20 g, after 1 day of adaptive breeding, mice were randomly divided into 4 groups of 10 animals in each group: ConA model group, triterpenoid saponin group, actein group, and deoxyactein group.
Model preparation and drug administration: weighed 150 mg of ConA powder, dissolved it in 40 mL of sterile PBS, left it at room temperature for 1 to 2 hours, and continued to gently shake intermittently to mix well. Low temperature ultrasound was used to improve dissolution (no more than 5 min each time) and avoided excessive foaming. After it was fully dissolved, the volume was adjusted to 50 mL to a concentration of 3 mg/mL and filtered the solution under pressure with a 0.45 μm filter. Mice were given a single intravenous injection at 25 mg/kg, with 100 μL per mouse. Took 4 mg of actein and deoxyactein, added 10 ml of sterile double-distilled water to dissolve to a concentration of 0.4 mg/mL. […]

CD3+CD4+ T cells = experiment: IFN-γ expression in CD4+ T lymphocytes; format: cell-based, C57BL/6 mice; details: spleen cells; actein 62.5 ng/mL, deoxyactein 250 ng/mL; PMA + ionomycin 5 h; PMA + ionomycin group 3.8 ± 0.6
Method: (§4) Test materials: CD3-PE antibodies were purchased from BD Company in the United States, and CD4-FITC and CD8-PerCP antibodies were purchased from eBioscience Company; the remaining required reagents were the same as those in Experimental Example 9.
as §3
(§5) Preparation of spleen single cell suspension: after anesthesia of C57BL/6 mice, isolated the spleen of the mouse, placed the spleen in a sterile petri dish with 4 mL of PBEB added, grinded the spleen with a glass frosted surface, and filtered with a sterile 400 mesh filter. The spleen cells were placed in a flow tube, and the supernatant was discarded after centrifugation. After adding 2 mL of RBC Lysis Buffer to lyse at room temperature for 15 minutes, the supernatant was discarded by centrifugation to harvest the spleen cells. Then added 1.5 mL of complete medium containing 10% FBS, 1% glutamine, and 1% double antibiotics (anti-penicillin, anti-streptomycin), and mixed well by repeated pipetting.
(§6) Drug treatment and intracellular staining after T cell induction activation: cells were treated with 62.5 ng/mL actein and 250 ng/mL deoxyactein in a medium concentration, and Cell Stimulation Cocktail (containing PMA, ionomycin and protein transport inhibitor) was added to stimulate the cells for 5 h. […]

[6] = system: CD45+CD3+NK1.1+ NKT cells; experiment: IFN-γ expression in NKT cells; format: cell-based, C57BL/6 mice; details: bone marrow cells; actein 62.5 ng/mL, deoxyactein 250 ng/mL; PMA + ionomycin 5 h; flow cytometry; PMA + ionomycin group 7.1 ± 0.7
Excerpt: Test material: same as Experimental Example 9.
Animal: C57BL/6 mice, purchased from Beijing Huafukang Biotechnology Co., Ltd
Bone marrow single cell suspension preparation: same as Experimental Example 9.
Drug treatment and intracellular staining after NKT cell induction activation: same as Experimental Example 9. Flow cytometry was used to detect the percentage of positive cells expressing IFN-γ in CD45^+CD3^+NK1.1^+ NKT cells.

CD45+CD3-NK1.1+ NK cells = experiment: IFN-γ expression in NK cells; format: cell-based, C57BL/6 mice; details: bone marrow cells; actein 62.5 ng/mL, deoxyactein 250 ng/mL; PMA + ionomycin 5 h; flow cytometry; PMA + ionomycin group 42.1 ± 2.7
Method: Test materials: CD45-PE, CD3-FITC, NK1.1-APC antibody, Intracellular Fixation & Permeabilization Buffer Set, and Cell Stimulation Cocktail were purchased from eBioscience.
as §3
Bone marrow single cell suspension preparation: after anesthesia of C57BL/6 mice, the 2 pairs of femur and tibia of the mouse were separated aseptically, the sterile bone marrow cells were pipetted into a sterile flow tube with a 2 mL syringe and sterile PBS to obtain bone marrow single cell suspension. After centrifugation, bone marrow cells were harvested, and 1.5 mL of complete medium containing 10% FBS, 1% glutamine, and 1% double antibiotics (anti-penicillin, anti-streptomycin) were added.
Intracellular staining after drug administration and NK cell induction activation: cells were treated with actein of intermediate concentration of 62.5 ng/mL and deoxyactein at a concentration of 250 ng/mL, and the cells were stimulated with Cell Stimulation Cocktail (containing PMA, ionomycin and protein transport inhibitors) for 5 h. Surface staining was performed with CD45-PE, CD3-FITC, NK1.1-APC antibodies, intracellular staining was performed with […] antibodies, and the percentage of positive cells expressing IFN-γ in CD45^+CD3^−NK1.1^+ NK cells was detected by flow cytometry.

CD3+CD8+ T cells = experiment: IFN-γ expression in CD8+ T lymphocytes; format: cell-based, C57BL/6 mice; details: spleen cells; actein 62.5 ng/mL, deoxyactein 250 ng/mL; PMA + ionomycin 5 h; PMA + ionomycin group 14.5 ± 1.0
Method: as §4, §3, §5, §6

[7] = 25 ng/mL, LPS 100 ng/mL, 4 hours
[8] = 50 ng/mL, LPS 100 ng/mL, 4 hours
[9] = 125 ng/mL, LPS 100 ng/mL, 4 hours
[10] = 250 ng/mL, LPS 100 ng/mL, 4 hours
[11] = 500 ng/mL, LPS 100 ng/mL, 4 hours
[12] = 2.5 ng/mL, LPS 100 ng/mL, 4 hours
[13] = 12.5 ng/mL, LPS 100 ng/mL, 4 hours
[14] = 62.5 ng/mL, LPS 100 ng/mL, 4 hours
[15] = 312.5 ng/mL, LPS 100 ng/mL, 4 hours

| Compound | ALT [1] [U/L] | AST [1] [U/L] | liver pathological damage (HE staining, FIG. 2) [3] | IL-6 [4] [pg/mL] | IL-12 [4] [pg/mL] | MCP-1 [4] [pg/mL] | TNF-α [4] [pg/mL] | IFN-γ [4] [pg/mL] | survival rate [5] [%] | IFN-γ+ (%), CD4+T cell (CD3+CD4+ T cells) [%] | IFN-γ+ [6] [%] | IFN-γ+ (CD45+CD3-NK1.1+ NK cells) [%] | IFN-γ+ (%), CD8+T cell (CD3+CD8+ T cells) [%] | other results |
| --- | --- | --- | --- | --- | --- | --- | --- | --- | --- | --- | --- | --- | --- | --- |
| CC(=O)O[C@@H]1C[C@@]23C[C@@]24CC[C@H](O[C@@H]2OC[C@@H](O)[C@H](O)[C@H]2O)C(C)(C)[C@@H]4CC[C@H]3[C@]2(C)C[C@@H]3O[C@]4(C[C@@H](C)[C@@H]3[C@@]12C)OC[C@@]1(C)O[C@@H]41 [Deoxyactein, deoxyactein] | 144.4 ± 68.5 | 390.8 ± 98.2 | large pieces of hepatocyte necrosis was significantly reduced and leukocyte infiltration was reduced | 1406 ± 134.1 | 190.5 ± 22.5 | 4741 ± 665.7 | 394.4 ± 41.8 | 245.3 ± 56 | 40 | 2.0 ± 0.7 | 2.2 ± 0.4 | 29.5 ± 3.5 | 12.1 ± 1.3 | IL-12 [2, 7]: 244 ± 2.8 pg/mL; TNF-α [2, 7]: 2529 ± 121.3 pg/mL; IL-12 [2, 8]: 177.8 ± 12.5 pg/mL; TNF-α [2, 8]: 2321 ± 97.4 pg/mL; IL-12 [2, 9]: 142.3 ± 6.8 pg/mL; TNF-α [2, 9]: 2440 ± 84.8 pg/mL; IL-12 [2, 10]: 88.1 ± 22.3 pg/mL; TNF-α [2, 10]: 2305 ± 76.8 pg/mL; IL-12 [2, 11]: 42.2 ± 23.7 pg/mL; TNF-α [2, 11]: 2077 ± 43.8 pg/mL |
| CC(=O)O[C@@H]1C[C@@]23C[C@@]24CC[C@H](O[C@@H]2OC[C@@H](O)[C@H](O)[C@H]2O)C(C)(C)[C@@H]4CC[C@H]3[C@]2(C)C[C@@H]3O[C@]4(C[C@@H](C)[C@@H]3[C@@]12C)O[C@H](O)[C@@]1(C)O[C@@H]41 [Actein, actein] | 39.8 ± 11.1 | 212 ± 33 | large pieces of hepatocyte necrosis was significantly reduced and leukocyte infiltration was reduced | 792 ± 48 | 22 ± 1.9 | 1832 ± 209.7 | 173 ± 18.2 | 116.2 ± 34.8 | 60 | 3.1 ± 0.6 | 3.5 ± 0.6 | 33.0 ± 2.2 | 14.3 ± 0.7 | IL-12 ([2]; 0.5 ng/mL, LPS 100 ng/mL 1 h later, supernatant after 4 hours, LPS group 226.6 ± 26.6): 194.5 ± 22.3 pg/mL; TNF-α ([2]; 0.5 ng/mL, LPS 100 ng/mL 1 h later, supernatant after 4 hours, LPS group 2891 ± 57): 2555 ± 62.3 pg/mL; IL-12 [2, 12]: 136.3 ± 22.8 pg/mL; TNF-α [2, 12]: 2483 ± 77.3 pg/mL; IL-12 [2, 13]: 88.5 ± 10.6 pg/mL; TNF-α [2, 13]: 2327 ± 77.3 pg/mL; IL-12 [2, 14]: 48.2 ± 21.4 pg/mL; TNF-α [2, 14]: 2056 ± 49.2 pg/mL; IL-12 [2, 15]: 8 ± 0.8 pg/mL; TNF-α [2, 15]: 2062 ± 49 pg/mL |
